The source of these data is US20260297086A1, “CRYSTALLINE PROLYL HYDROXYLASE DOMAIN-CONTAINING PROTEIN (PHD) INHIBITOR AND USES THEREOF” (Insilico Medicine IP Limited, priority 2023, published 2026).

One assay concerns HIF1α (Caco2 cells). As to the kind of experiment: Caco2-HIF1α-HiBit assay. Conditions: Homo sapiens, Caco-2. In kind it is cell-based. For orientation: The HiBiT peptide binds its large partner to form an active luciferase.
The target in the next assay is PHD2 (Homo sapiens, UniProt Q9GZT9). As to the kind of experiment: PHD2 Enzymatic Assay (AlphaScreen). Format: biochemical. The following applies: PHD2 enzyme, 30 min preincubation at RT. How it is done: Example 1: PHD2 Enzymatic Assay Procedure
Compound DMSO stock preparation: Compound 1 was reconstituted into 20 mM stock by DMSO.
Compound storage: Compound 1 in DMSO was stored at RT in a desiccator for short-term storage (up to 3 months).
• Reference Roxadustat (FG-4592) was 3-fold serial diluted from 400 μM for 10 doses in DMSO. • The compounds were 3-fold serial diluted from 400 μM for 10 doses in DMSO. • Prepared 200× positive control (400 μM, FG-4592) and 200× vehicle control (100% DMSO). • Centrifuged compound plates at 1000 rpm for 1 min.
• a) Transferred 40 nl compound dilutions into each well of assay plates using Echo 655; • b) Sealed the assay plate and centrifuge compound plates at 1000 rpm for 1 min. • c) Prepared and add 4 μL of the 2×PHD2 enzyme working solution to individual well of the assay plate. • d) Sealed the assay plate and centrifuge compound plates at 1000 rpm for 1 min. […]
• ALPHASCREEN signal (ALPcmpd) is calculated for each well • % Inhibition is calculated as follow:
[formula] • ALPpositive: The average ALP for the positive controls across the plate. • ALPvehicle: The average ALP for the negative controls across the plate. • Calculate IC50 and Plot effect-dose curve of compounds: • Calculated IC50 by fitting % inhibition values and log of compound concentrations to nonlinear regression (dose response−variable slope) with Graphpad 8.0. […]
In general terms: In Alpha technology, singlet oxygen from a donor bead excites a nearby acceptor bead.

pEC50, pIC50: −log10 of the molar value. A value given as a limit tells only on which side of the number the result lay.

PHD2, sequence (Q9GZT9 whole entry): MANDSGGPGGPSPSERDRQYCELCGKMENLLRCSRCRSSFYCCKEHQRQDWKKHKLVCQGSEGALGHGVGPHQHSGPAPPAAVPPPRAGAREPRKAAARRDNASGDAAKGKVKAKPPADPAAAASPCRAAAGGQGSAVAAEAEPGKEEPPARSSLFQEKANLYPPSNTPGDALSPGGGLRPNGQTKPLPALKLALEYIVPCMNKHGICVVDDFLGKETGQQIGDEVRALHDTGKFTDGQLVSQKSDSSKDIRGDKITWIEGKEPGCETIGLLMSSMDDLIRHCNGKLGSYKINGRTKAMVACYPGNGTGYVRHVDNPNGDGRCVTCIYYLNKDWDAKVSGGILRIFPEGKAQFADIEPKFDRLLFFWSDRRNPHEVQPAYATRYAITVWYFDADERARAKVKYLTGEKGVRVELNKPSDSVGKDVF

As a reminder, the pEC50 is the negative decadic logarithm of the EC50, by convention in mol/L. Low readings indicate a high EC50, high ones a low EC50. As a reminder, the pIC50 is −log10 of the IC50, conventionally taken in molar units. A low value points to a high IC50. `CC(C)(C)OC(=O)N1CCN(c2ccc3c(O)c(C(=O)NCc4ccc(C#N)nc4)ncc3n2)CC1` [Compound 1, tert-butyl 4-(6-(((6-cyanopyridin-3-yl)methyl)carbamoyl)-5-hydroxy-1,7-naphthyridin-2-yl)piperazine-1-carboxylate] gave a pEC50 in the assay with HIF1α (Caco2 cells) greater than 5.60. At PHD2, this compound gave a pIC50 greater than 8.30.
